From patent publication US20060269995A1, “Novel assays utilizing nicotinic acetylcholine receptor subunits” (priority 2005, published 2006) come the findings set out here.

For one test, the system named is 34E/30D/ric-3. It counts as cell-based, Drosophila melanogaster. The arrangement: key to the marks not given beside the values. As to conditions: spinosyn A 10 μM for 60 seconds, −60 mV, peak current. As to the method:
(§1) Xenopus laevis (Xenopus 1, Ann Arbor, Mich.; Nasco, Fort Atkinson, Wis.) were anesthetized by bathing in a solution of 2 g/l tricaine methane sulfonate, and oocytes were surgically removed from the frog and placed in a culture solution that consisted of 96 mM NaCl, 2 mM KCl, 1.8 mM CaCl2, 1 mM MgCl2, 5 mM HEPES, 2.5 mM Na-pyruvate, 100 units/ml penicillin, and 0.1 mg/ml streptomycin, pH 7.6. Oocytes were dispersed in a nominally zero Ca^2+ protease treatment solution to defolliculate the oocytes. The protease treatment solution consisted of either 88 mM NaCl, 2.5 mM KCl, 1 mM MgCl2, 5 mM HEPES, 2.5 mM Na-pyruvate, 100 units/ml penicillin, and 0.1 mg/ml streptomycin, pH 7.6 plus 1.5 mg/ml collagenase IA (Sigma Chemical Co., St. Louis, Mo.). After isolation, the oocytes were thoroughly rinsed and returned to the above Ca^2+ containing culture solution and stored at 18° C.
(§2) Synthesis of cRNA was performed as follows: Plasmid DNA was linearized with one of the following restriction enzymes; Not I, Xho I or Nhe I. The linearized DNA was subsequently used as template for cRNA synthesis using T7 mMessage mMachine kit (Ambion, Austin, Tex.) following the manufacturer's instructions.
(§3) Micropipettes for injection of cRNA into Xenopus oocytes were pulled on a DMZ-Universal Puller (Zeitz-Instruments, München, Germany). The cRNA to be injected was drawn up into the micropipette with negative pressure. Approximately 10-50 ng of cRNA was injected into the oocytes by applying positive pressure using a Nanoject II oocyte injector (Drummond Scientific Co., Broomall, Pa.). Nucleic acid was introduced into the oocytes as follows: (1) nicotinic acetylcholine receptor alpha-6 subunit subunit (30D) (2) nicotinic alpha-7 receptor subunit (34E); (3) nicotinic acetylcholine receptor alpha-6 subunit and C. elegans ric-3 (30D and ric-3); (4) nicotinic alpha-7 receptor subunit and C. elegans ric-3 (34E and ric-3); (5) nicotinic acetylcholine receptor alpha-6 subunit and nicotinic alpha-7 receptor subunit (30D and 34E); and, (6) nicotinic acetylcholine receptor alpha-6 subunit, nicotinic alpha-7 receptor subunit and C. elegans ric-3 (30D, 34E and ric-3).
(§4) The control external solution for voltage clamp recordings consisted of 88 mM NaCl, 1 mM KCl, 0.41 mM CaCl2, 2.4 mM NaHCO3, 0.3 mM Ca(NO3)2, 0.82 mM MgSO4·7 H2O, and 15 mM HEPES, pH 7.6. The recording chamber was continuously perfused with a gravity-fed perfusion system. Nicotine (1 mM) was added to the external solution and then added to the perfusate for 30 seconds. Then, nicotine was washed from the external solution a minimum of 10 minutes. Thereafter, spinosyn A was dissolved in dimethylsulfoxide (DMSO) and then dissolved in the external solution at a final concentration of 10 μM and then added to the perfusate for 60 seconds. […]

The next test concerns 34E/30D. It is filed as cell-based, Drosophila melanogaster. The arrangement: key to the marks not given beside the values. The settings on record: spinosyn A 10 μM for 60 seconds, −60 mV, peak current. Here is the method: as §1, §2, §3, §4
In a further test the test system is Dα6-nicotinic receptor. It is filed as binding, Drosophila melanogaster. The settings on record: 10 μM; [3H]MLA; intact Xenopus oocytes 3 days post-injection with Dmα6.
Wherever Spinosyn A Response is given: key: '−' indicates a negligible current was induced; '+' indicates a small amplitude current; '++' indicates a moderate amplitude current; '++++' indicates a large amplitude current.

Description for Dα6-nicotinic receptor: Xenopus oocytes were injected as previously described for the electrophysiological assay and were used intact for binding assays.
Two main radioligands were used in binding assays: the conventional α7 radioligand, [^3H]methyllycaconitine (MLA) and [^3H]dihydrospinosyn A (DHSA). For both radioligands, the Binding Buffer used consisted of 10 mM sodium phosphate (7.2-7.4). […] For Xenopus oocyte binding assays, oocytes were pooled (2-5 oocytes) and transferred to 1 ml Binding Buffer. This was followed by gently aspirating the Binding Buffer and replacing with fresh Binding Buffer twice, to wash out any residual oocyte bathing media. The final volume of buffer added to each pool of oocytes was 50-100 μl. […] Subsequent dilutions were made in Binding Buffer. The final concentration of solvent was maintained at less than 0.1% in each well. 25 μl of unlabeled competing compounds were added to the cell suspensions or oocytes. Cells or cell extracts were pre-incubated with compounds for 15-30 minutes, at 10° C. (for [^3H]DHSA) and room-temperature for [^3H]MLA. The samples were gently shaken using a plate shaker. […] Filter mats were dried in an oven at 60° C. and the radioactivity from samples was counted for three minutes with a Wallac MicroBeta Counter (Wallac, Conn.) using Meltilex solid-scintillant (PerkinElmer, Finland). […]

`CC[C@H]1CCC[C@H](O[C@H]2CC[C@H](N(C)C)[C@@H](C)O2)[C@@H](C)C(=O)C2=C[C@@H]3[C@@H](C=C[C@@H]4C[C@@H](O[C@@H]5O[C@@H](C)[C@H](OC)[C@@H](OC)[C@H]5OC)C[C@@H]34)[C@@H]2CC(=O)O1` [Spinosyn A, spinosyn A]: the “Spinosyn A Response” value is “++++” with 34E/30D/ric-3 and “++” in the test with 34E/30D. In addition, the “% Displacement of Total Binding” value with Dα6-nicotinic receptor is given as 72%.
